Test results reported in EP0350948B1, “Porphyrin derivatives” (TOYOHAKKA KOGYO KABUSHIKI KAISHA, priority 1988, dated 1990).

Experiments:
[1] = tested on: nitrosoamine-induced pancreatic cancer; test: laser irradiation to the extirpated organ (excited fluorescent spectrum, N2-PLS measurement), tumor to tissue ratio; format: in vivo, Golden hamsters; conditions: i.v. 25 mg/kg bodyweight, organs extirpated at 24 hours after administration
Procedure, shortened: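 Male golden hamsters (~150 g, 5/group) bearing subcutaneous tumours, given EG-Ga-DP-diGly 25 mg/kg i.v. 14–21 days post-implant. Organs excised at 24 h, excited by N2-pulsed laser (337 nm); 600–900 nm peak referenced to NADH 470 nm. For Mn, Fe, Cu complexes, organic-solvent extracts measured by UV or HPLC.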

[2] = tested on: nitrosoamine-induced pancreatic cancer; test: in vivo irradiation therapy using Yag laser; design: species or system hamsters; conditions: i.v. 12.5 mg/kg bodyweight, Yag laser 1064 nm, 5 w, 10 sec x 4 at 24 hours after administration, autopsy 24 hours following irradiation
Procedure: Tumor bearing hamsters of Experiment 1 were i.v. administered the test materials C6-Ga-DP-diAsp (10) and C10 -Ga-DP-diAsp (16) (10 mg/ml) at 12.5 mg/kg bodyweight. At 24 hours after administration, the hair above the tumor site was shaved and irradiation with Yag laser commenced (1064 nm, 5 w, 10 sec x 4). At 24 hours following irradiation, the animals were exsanguinated and autopsied for observation.

[3] = tested on: nitrosoamine-induced pancreatic cancer; test: in vivo hemorrhagic necrosis effect; design: species or system hamsters; key to Hemorrhagic necrosis effect: four scales of G4, G3, G2 and G1; four scales of G4, G3, G2 and G1; four scales of G4, G3, G2 and G1; four scales of G4, G3, G2 and G1; conditions: for photograph of a cancer mass (Fig. 2): 24 hours after administration, Cn-Ga-DP-diAsp, n = even numbers; for Hemorrhagic necrosis effect: intensity of hemorrhagic necrosis at 24 hours following i.v. administration, and pathological study
Procedure: Cancer bearing hamsters of Experiment 1 were i.v. administered the test substance C6-Ga-DP-diAsp (10) (10 mg/ml) which had been diluted with phosphate buffer at 25 mg/kg bodyweight and 12.5 mg/kg bodyweight respectively. The animals were exsanguinated and autopsied at 24 hours after administration, and observed.
The evaluation was based on the four scales of G4, G3, G2 and G1.

[4] = tested on: nitrosoamine-induced pancreatic cancer; test: in vivo cell growth inhibition effect (tumor size by slide calipers); design: species or system hamsters; conditions: i.v. 25 mg/kg bodyweight
Procedure: Tumor bearing hamsters of Experiment 1 were i.v. administered the test substance C10-Mn-DP-diAsp (37) (10 mg/ml) diluted by phosphate buffer at 25 mg/kg bodyweight. The tumor size was measured supracutaneously using slide calipers on an appropriate day following administration.

[5] = tested on: nitrosoamine-induced pancreatic cancer; test: pathology of tumor and organs (hematoxylin-eosin sections); format: in vivo, hamsters; conditions: treated as in Experiment 2, formalin fixed
Procedure: Tumor bearing hamsters of Experiment 1 were treated similarly as in Experiment 2 except that they were administered C12-Mn-DP-diAsp (48) instead of C6-Ga-DP-diAsp (10). Organs including the tumor (the treated group and the control group) were fixed with formalin, embedded in paraffin, cut into sections, double stained with hematoxylin-eosin, and observed pathologically.
Figs. 4 and 5 show photographs of the tumor cell necrosis of the treated group. There were many cell necrosis images and necrotic layers which were not present in the non-cancerous organs and the control group.

[6] = i.v. 25 mg/kg and 12.5 mg/kg bodyweight, autopsy at 24 hours after administration

Row | tumor/tissue cancer/ kidney [1] | tumor/tissue cancer/ liver [1] | tumor/tissue cancer/ lung [1] | tumor/tissue cancer/ serum [1] | SMILES | state of the cancer mass after Yag laser irradiation [2] | photograph of a cancer mass (Fig. 2) [3] | changes of the organs such as the liver, lungs, kidneys excluding the tumor [3, 6] | effect on the cancer mass [3, 6] | Hemorrhagic necrosis effect [3] | tumor growth compared to the control group (Fig. 6) [4] | pathological observation of the tumor (Fig. 4) [5]
1 | 6.86 | 5.33 | 5.33 | 0.98 | CCCCCCOC(C)C1=C(C)C2=Cc3c(C(C)OCCCCCC)c(C)c4[n]3[Ga][n]3c(c(C)c(CCC(=O)NC(CC(=O)O)C(=O)O)c3=CC3=NC(=C4)C(C)=C3CCC(=O)NC(CC(=O)O)C(=O)O)=CC1=N2 (stereo not shown) [(10) C6-Ga-DP-diAsp, 2,4-bis(1-hexyloxyethyl)-Ga-deuteroporphynyl diaspartic acid] | necrotic | hemorrhagic necrosis | showed no changes | developed hemorrhagic necrosis | G4 |  | 
2 |  |  |  |  | CCCCCCCCCCCCOC(C)C1=C(C)C2=Cc3c(C(C)OCCCCCCCCCCCC)c(C)c4[n]3[Mn][n]3c(c(C)c(CCC(=O)NC(CC(=O)O)C(=O)O)c3=CC3=NC(=C4)C(C)=C3CCC(=O)NC(CC(=O)O)C(=O)O)=CC1=N2 (stereo not shown) [(48) C12-Mn-DP-diAsp, 2,4-bis(1-dodecyloxyethyl)-Mn-deuteroporphynyl diaspartic acid] |  |  |  |  | G4 | notable tumor growth inhibitory effect | necrotic tumor cells
3 | 16.44 | 11.54 | 23.08 | 2.78 | CCCCCCCCCCOC(C)C1=C(C)c2cc3[nH]c(cc4nc(cc5[nH]c(cc1n2)c(C)c5C(C)OCCCCCCCCCC)C(C)=C4CCC(=O)NC(CC(=O)O)C(=O)O)c(CCC(=O)NC(CC(=O)O)C(=O)O)c3C.[Ga] (stereo not shown) [(16) C10-Ga-DP-diAsp, 2,4-bis(1-decyloxyethyl)-Ga-deuteroporphynyl diaspartic acid] | necrotic | hemorrhagic necrosis |  |  | G2 |  | 
